Laboratory results: patent US20160378912A1, “STRUCTURE-BASED MODELING AND TARGET-SELECTIVITY PREDICTION” (EPIGENETX, LLC, priority 2013, published 2016)
Like-named read-outs stand apart in the source and are kept apart here.

Key:
HDAC8 = molecular target: T1, HDAC8 (Homo sapiens, UniProt Q9BY41); conditions: cited from earlier work; for pIC50: training set composition
T1 sequence (Q9BY41 1-377): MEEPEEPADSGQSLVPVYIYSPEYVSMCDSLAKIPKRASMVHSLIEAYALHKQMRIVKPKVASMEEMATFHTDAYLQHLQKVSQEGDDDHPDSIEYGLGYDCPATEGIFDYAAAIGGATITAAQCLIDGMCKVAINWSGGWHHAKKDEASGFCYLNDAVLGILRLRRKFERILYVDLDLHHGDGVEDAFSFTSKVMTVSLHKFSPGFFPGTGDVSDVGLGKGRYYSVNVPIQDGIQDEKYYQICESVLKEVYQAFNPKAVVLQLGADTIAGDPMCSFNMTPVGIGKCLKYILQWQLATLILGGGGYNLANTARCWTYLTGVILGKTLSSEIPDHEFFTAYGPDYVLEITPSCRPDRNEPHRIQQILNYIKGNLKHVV

HDAC2 = HDAC2 (Homo sapiens, UniProt Q92769); conditions: cited from earlier work; for Exp. pIC50: MTS inhibitors
Sequence of HDAC2 (Q92769 whole entry): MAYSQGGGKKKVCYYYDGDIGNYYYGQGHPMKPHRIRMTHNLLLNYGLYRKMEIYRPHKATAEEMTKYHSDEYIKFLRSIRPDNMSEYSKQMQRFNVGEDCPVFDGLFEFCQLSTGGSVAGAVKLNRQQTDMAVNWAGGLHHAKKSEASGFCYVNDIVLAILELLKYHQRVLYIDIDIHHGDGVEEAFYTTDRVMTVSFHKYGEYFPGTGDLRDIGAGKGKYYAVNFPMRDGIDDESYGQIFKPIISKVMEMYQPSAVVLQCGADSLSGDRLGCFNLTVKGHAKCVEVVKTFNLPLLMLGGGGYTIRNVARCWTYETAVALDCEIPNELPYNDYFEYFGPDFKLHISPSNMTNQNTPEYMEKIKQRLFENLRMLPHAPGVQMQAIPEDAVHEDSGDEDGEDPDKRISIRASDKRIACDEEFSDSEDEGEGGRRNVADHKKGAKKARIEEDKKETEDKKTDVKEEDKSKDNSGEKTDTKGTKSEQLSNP

HDAC6 = molecular target: T2, HDAC6 (Homo sapiens, UniProt Q9UBN7); conditions: cited from earlier work; for IC50: HDAC6, MTS, read-out: reported HDACs inhibitory activities IC50; for Exp. pIC50: MTS inhibitors
T2 sequence (Q9UBN7 1-1215): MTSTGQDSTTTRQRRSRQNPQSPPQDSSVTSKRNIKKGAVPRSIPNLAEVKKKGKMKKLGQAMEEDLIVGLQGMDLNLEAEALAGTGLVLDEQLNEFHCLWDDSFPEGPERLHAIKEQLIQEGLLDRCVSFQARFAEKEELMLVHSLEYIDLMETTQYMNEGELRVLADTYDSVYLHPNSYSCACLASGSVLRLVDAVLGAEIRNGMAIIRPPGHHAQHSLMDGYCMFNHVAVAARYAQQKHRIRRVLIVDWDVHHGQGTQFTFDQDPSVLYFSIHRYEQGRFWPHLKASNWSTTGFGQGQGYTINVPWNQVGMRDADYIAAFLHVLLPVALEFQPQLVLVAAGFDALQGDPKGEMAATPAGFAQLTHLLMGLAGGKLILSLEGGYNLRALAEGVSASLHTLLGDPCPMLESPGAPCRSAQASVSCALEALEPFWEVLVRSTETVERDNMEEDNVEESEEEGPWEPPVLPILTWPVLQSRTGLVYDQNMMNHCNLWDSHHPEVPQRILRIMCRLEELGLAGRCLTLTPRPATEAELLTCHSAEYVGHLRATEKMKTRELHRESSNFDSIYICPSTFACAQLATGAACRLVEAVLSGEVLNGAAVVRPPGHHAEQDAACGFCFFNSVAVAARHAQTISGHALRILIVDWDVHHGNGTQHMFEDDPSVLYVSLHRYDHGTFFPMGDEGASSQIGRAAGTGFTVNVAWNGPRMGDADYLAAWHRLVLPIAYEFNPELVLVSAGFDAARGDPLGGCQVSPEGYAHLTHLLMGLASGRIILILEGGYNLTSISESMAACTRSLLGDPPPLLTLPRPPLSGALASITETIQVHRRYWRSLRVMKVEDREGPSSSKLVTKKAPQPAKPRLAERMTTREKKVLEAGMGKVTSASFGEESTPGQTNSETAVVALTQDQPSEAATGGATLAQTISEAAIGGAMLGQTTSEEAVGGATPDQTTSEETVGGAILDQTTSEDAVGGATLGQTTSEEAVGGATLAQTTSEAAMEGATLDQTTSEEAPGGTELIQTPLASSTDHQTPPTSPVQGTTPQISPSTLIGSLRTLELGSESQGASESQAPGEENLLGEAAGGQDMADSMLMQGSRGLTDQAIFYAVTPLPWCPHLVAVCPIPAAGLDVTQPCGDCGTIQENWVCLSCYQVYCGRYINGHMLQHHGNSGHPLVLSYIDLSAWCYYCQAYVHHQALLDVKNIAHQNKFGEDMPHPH

HDAC10 = molecular target: T3, HDAC10 (Homo sapiens, UniProt Q969S8); conditions: cited from earlier work; for Exp. pIC50: MTS inhibitors; for pIC50exp: experimental value of modeled complex; for pIC50: training set composition
T3 sequence (Q969S8 1-669): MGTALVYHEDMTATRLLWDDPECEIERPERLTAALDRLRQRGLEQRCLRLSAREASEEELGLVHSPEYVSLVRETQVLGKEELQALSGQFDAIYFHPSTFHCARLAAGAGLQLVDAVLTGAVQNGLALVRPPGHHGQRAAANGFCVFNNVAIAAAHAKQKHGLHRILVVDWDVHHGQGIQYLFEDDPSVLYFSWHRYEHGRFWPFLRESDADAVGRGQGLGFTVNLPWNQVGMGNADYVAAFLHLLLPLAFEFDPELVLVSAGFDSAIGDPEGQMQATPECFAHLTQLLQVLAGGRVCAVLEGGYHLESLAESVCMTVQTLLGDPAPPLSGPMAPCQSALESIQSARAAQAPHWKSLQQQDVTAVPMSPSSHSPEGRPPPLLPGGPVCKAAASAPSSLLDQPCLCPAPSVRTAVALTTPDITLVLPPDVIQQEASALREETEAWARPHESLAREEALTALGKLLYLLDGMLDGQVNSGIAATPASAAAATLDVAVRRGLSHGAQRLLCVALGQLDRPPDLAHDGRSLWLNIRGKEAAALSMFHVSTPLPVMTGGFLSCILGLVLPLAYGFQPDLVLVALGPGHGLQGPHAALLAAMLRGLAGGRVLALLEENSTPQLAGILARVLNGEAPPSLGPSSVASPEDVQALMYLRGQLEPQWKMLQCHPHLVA

HDAC1 = HDAC1 (Homo sapiens, UniProt Q13547); conditions: cited from earlier work; for Exp. pIC50: MTS inhibitors
Sequence of HDAC1 (Q13547 whole entry, canonical isoform): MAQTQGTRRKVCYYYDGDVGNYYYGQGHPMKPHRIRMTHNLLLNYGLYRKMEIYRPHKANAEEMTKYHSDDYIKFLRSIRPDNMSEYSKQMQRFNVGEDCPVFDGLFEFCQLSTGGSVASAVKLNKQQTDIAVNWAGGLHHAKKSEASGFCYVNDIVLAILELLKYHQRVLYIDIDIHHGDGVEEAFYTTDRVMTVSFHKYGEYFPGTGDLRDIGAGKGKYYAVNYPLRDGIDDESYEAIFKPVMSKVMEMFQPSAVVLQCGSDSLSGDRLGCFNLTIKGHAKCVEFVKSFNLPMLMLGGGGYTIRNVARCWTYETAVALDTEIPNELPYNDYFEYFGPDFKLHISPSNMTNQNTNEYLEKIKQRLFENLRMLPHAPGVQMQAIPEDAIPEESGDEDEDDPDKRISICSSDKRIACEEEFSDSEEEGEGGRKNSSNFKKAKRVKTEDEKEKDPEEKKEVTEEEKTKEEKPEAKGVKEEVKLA

HDAC isoforms = experiment: HDAC inhibition profiled over several HDAC isoforms (experimental); format: biochemical, human; conditions: range of pIC50 over the profiled HDAC isoforms
HDAC3 = HDAC3 (Homo sapiens, UniProt O15379); conditions: cited from earlier work
Sequence of HDAC3 (O15379 whole entry): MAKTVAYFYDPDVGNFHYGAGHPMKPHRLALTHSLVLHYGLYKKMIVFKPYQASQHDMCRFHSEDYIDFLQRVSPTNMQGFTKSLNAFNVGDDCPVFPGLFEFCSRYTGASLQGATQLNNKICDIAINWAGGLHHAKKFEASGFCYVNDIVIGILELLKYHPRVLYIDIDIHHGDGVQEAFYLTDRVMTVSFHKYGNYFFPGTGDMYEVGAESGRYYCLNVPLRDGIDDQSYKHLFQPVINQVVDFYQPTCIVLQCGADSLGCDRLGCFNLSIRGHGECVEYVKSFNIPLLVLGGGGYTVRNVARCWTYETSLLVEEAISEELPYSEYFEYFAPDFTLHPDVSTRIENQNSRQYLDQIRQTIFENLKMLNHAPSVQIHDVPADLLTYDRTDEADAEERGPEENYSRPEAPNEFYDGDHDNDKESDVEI
Sequence of HDAC3 (Q9Y618 395-489 partner limits assumed): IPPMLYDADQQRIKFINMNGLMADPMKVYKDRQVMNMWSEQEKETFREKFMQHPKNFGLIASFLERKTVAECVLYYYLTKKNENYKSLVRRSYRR

HDAC4 = HDAC4 (Homo sapiens, UniProt P56524); conditions: cited from earlier work; for pIC50: training set composition; for IC50: training set, read-out: HDACs inhibitory activities IC50
Sequence of HDAC4 (P56524 whole entry): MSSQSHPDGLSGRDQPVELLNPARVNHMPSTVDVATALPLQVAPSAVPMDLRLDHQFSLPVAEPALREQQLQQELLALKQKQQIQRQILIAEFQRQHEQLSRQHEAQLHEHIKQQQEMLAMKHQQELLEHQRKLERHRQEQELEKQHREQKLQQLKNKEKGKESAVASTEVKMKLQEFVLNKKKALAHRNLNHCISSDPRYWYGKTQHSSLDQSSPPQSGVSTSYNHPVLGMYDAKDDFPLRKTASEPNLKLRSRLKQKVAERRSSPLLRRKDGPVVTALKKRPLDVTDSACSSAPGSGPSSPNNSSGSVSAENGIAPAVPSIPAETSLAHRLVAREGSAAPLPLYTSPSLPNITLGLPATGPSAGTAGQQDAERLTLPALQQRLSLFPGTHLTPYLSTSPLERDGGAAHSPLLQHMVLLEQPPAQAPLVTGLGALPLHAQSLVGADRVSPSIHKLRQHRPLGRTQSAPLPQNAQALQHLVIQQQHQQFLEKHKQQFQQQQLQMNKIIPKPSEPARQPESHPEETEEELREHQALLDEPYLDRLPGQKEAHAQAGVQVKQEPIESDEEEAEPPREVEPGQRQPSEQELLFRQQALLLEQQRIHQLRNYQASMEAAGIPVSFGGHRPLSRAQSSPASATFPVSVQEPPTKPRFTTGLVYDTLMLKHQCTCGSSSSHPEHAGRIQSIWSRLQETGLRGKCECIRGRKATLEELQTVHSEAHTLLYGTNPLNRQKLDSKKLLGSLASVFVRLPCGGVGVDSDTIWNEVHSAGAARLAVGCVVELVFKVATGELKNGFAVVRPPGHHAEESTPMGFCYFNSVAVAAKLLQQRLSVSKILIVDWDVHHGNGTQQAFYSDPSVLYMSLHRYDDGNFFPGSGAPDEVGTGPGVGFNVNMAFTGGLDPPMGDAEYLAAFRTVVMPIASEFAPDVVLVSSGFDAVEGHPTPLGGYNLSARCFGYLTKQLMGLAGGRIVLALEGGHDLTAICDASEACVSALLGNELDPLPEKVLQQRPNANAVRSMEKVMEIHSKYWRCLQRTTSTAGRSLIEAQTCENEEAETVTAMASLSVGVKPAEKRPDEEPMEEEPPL

HDAC7 = molecular target: T4, HDAC7 (Homo sapiens, UniProt Q8WUI4); conditions: cited from earlier work
T4 sequence (Q8WUI4 1-952): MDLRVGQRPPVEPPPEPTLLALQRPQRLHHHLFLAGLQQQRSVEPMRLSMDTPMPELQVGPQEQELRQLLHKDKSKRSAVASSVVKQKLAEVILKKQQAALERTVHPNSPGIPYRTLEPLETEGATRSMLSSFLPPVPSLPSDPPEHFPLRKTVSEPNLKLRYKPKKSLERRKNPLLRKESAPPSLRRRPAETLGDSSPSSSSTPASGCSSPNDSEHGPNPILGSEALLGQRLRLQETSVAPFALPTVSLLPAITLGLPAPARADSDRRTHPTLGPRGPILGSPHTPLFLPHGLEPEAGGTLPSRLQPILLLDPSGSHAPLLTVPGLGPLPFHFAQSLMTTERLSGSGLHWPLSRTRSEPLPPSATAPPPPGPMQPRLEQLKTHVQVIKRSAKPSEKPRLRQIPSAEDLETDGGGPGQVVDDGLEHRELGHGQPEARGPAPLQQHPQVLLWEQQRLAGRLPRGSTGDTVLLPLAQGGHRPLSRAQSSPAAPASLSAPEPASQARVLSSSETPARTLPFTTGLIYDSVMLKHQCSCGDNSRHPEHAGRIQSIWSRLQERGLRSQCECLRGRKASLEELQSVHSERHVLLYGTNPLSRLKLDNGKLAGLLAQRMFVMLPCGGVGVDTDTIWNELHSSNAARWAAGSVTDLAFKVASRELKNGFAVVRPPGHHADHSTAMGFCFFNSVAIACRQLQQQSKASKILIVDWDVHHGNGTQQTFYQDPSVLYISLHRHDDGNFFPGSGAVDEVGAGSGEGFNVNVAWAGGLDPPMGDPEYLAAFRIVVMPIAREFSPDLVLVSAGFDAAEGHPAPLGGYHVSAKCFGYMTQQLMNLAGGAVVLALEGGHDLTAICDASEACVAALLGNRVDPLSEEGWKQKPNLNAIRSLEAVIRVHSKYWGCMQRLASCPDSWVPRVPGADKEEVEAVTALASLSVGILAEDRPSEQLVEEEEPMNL

HDAH = molecular target: T5, HDAH (Alcaligenes sp., UniProt Q70I53); conditions: CTS; cited from earlier work
T5 sequence (Q70I53 1-369): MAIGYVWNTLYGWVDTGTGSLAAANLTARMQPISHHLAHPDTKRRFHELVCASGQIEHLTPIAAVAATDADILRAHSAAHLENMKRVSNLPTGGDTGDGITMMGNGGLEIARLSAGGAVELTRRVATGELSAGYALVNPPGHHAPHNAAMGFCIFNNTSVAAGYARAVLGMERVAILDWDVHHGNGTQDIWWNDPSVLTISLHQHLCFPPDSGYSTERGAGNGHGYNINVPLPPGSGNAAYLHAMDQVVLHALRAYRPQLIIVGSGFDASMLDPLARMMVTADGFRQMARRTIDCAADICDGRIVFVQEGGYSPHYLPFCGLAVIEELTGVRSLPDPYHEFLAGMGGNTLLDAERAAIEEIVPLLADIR

[1] = co-crystallized ligand, read-out: IC50
[2] = HDAC6, listed with HDAC6-1 complexes
[3] = HDAC6, listed with HDAC6-2 complexes
[4] = MTS, read-out: reported HDACs inhibitory activities IC50
[5] = training set, read-out: HDACs inhibitory activities IC50

For `N[C@H](Cc1ccc(Cl)cc1Cl)C(=O)N1CCN(C(=O)c2ccc(F)cc2F)CC1` [0DI], the IC50 (HDAC8; CTS, read-out: IC50) is given as 200 nM and the “Experimental pIC50” value (HDAC8; CTS) is given as 6.70.
For “4-dimethylamino-n-(6- hydroxycarbamoyethyl) benzamide-n-hydroxy-7-(4- dimethylaminobenzoyl) aminoheptanamide [MS-344]”, the IC50 (HDAC8; [1]) is listed as 249 nM and the pIC50 (HDAC8) is listed as 6.60.
For `CC(C)(C)OC(=O)Nc1cccc(-c2csc(NC(=O)CCCCCCC(=O)NO)n2)c1` [CMC-25b], the “Exp. pIC50” value (HDAC2) is listed as 7.13, the IC50 (HDAC6) is listed as 0.2 nM and the “Exp. pIC50” value (HDAC6; [2]) is listed as 9.70. For the same compound, the “Exp. pIC50” value (HDAC6; [3]) was 9.70, the “Exp. pIC50” value (HDAC10) was 8.70 and the IC50 (HDAC10; [4]) was 0.002 µM.
In the case of `C[C@@H](NC(=O)c1ccc(C(=O)C(F)(F)F)s1)c1ccccc1` [MCL08-3d], the “Exp. pIC50” value (HDAC1) is listed as 6.50.
For MS-275, the “Bioactivity range (ΔpIC50) DpIC50” value (HDAC isoforms) was 2.63.
In the case of `CN(c1ccc(C(=O)NO)cc1)S(=O)(=O)c1ccc(-c2ccccn2)s1` [NHB, N-hydroxy-4-{methyl[(5-pyridin-2-ylthiophen-2-yl)sulfonyl]amino}benzamide], the IC50 (HDAC8; [1]) is listed as 175 nM and the pIC50 (HDAC8) is listed as 6.76.
With SCRIPTAID the “Bioactivity range (ΔpIC50) DpIC50” value (HDAC isoforms) was 2.76.
In the case of `CC(C)(C)OC(=O)Nc1ccccc1-c1ccc(NC(=O)CCCCCCC(=O)NO)cc1` [CMC-7f], the “Exp. pIC50” value (HDAC1) is listed as 7.24, the IC50 (HDAC1; [4]) is listed as 0.057 µM and the “Exp. pIC50” value (HDAC2) is listed as 7.13. For the same compound, the IC50 (HDAC2; [4]) was 74 nM, the “Exp. pIC50” value (HDAC3; MTS inhibitors) was 7.75 and the IC50 (HDAC3; [4]) was 18 nM. The IC50 (HDAC6) was 11 nM, the “Exp. pIC50” value (HDAC6; [2]) was 7.96 and the “Exp. pIC50” value (HDAC6; [3]) was 7.96. The “Exp. pIC50” value (HDAC8; MTS inhibitors) was 5.76, the IC50 (HDAC8; [4]) was 1720 nM and the “Exp. pIC50” value (HDAC10) was 7.08. For the same compound, the IC50 (HDAC10; [4]) was 0.083 µM.
In the case of `Cn1cc(C(=O)Cc2ccccc2)cc1/C=C/C(=O)NO` [APHA8, (2E)-N-hydroxy-3-[1-methyl-4-(phenylacetyl)-1H-pyrrol-2-yl]prop-2-enamide], the “Bioactivity range (ΔpIC50) DpIC50” value (HDAC isoforms) is listed as 1.87, the pIC50 (HDAC4) is listed as 5.51 and the IC50 (HDAC4) is listed as 3100 nM. The pIC50 (HDAC7; training set composition) was 5.51 and the IC50 (HDAC7; [5]) was 3.1 µM.
For Oxamflatin, the “Bioactivity range (ΔpIC50) DpIC50” value (HDAC isoforms) is given as 2.34, the pIC50 (HDAC4) is given as 7.52 and the IC50 (HDAC4) is given as 30 nM. The pIC50exp (HDAC10) was 7.301, the pIC50 (HDAC10) was 7.30 and the IC50 (HDAC10; [5]) was 0.05 µM.
For `O=C(CCC1CCCC1)NO` [3YP, 3-cyclopentyl-n-hydroxypropanamide], the “Experimental pIC50” value (HDAH) is given as 6.54 and the IC50 (HDAH) is given as 0.29 µM.
In the case of `O=C(CCCCCCC(=O)C(F)(F)F)Nc1ccccc1` [CF3, 9,9,9-trifluoro-8-oxo-n-phenylnonanamide], the “Experimental pIC50” value (HDAH) is given as 4.95 and the IC50 (HDAH) is given as 11.2 µM.
In the case of `CCCC(CCC)C(=O)O` [VALP, valproic acid], the “Bioactivity range (ΔpIC50) DpIC50” value (HDAC isoforms) is listed as 0.95, the pIC50exp (HDAC1; experimental value of modeled complex) is listed as 3 and the pIC50 (HDAC1; training set composition) is listed as 3.00. The IC50 (HDAC1; [5]) was 1000 µM, the pIC50exp (HDAC10) was 3 and the pIC50 (HDAC10) was 3.00. For the same compound, the IC50 (HDAC10; [5]) was 1000 µM.
In the case of `CNC(=O)/C(CCCCCCC(=O)Nc1cccc(-c2ccc(Cl)nc2)c1)=N\O` [JMC-23], the IC50 (HDAC8; [4]) is given as 100000 nM.
